Data as given in patent publication US20220267352A1, “RAPAMYCIN ANALOGS AND USES THEREOF” (Anakuria Therapeutics, Inc., priority 2021, published 2022).

Key:
[1] = tested on: p-Akt 1/2/3 (Ser473) in MCF-7 cells; assay: AlphaLISA Ultra pAKT assay; format: cell-based; settings: Homo sapiens, 1.5 h; MCF7 cells, 90 min
Protocol: Example 56: AlphaLISA Ultra pAKT Assay
Assay Protocol: • 1. MCF-7 cells in Corning 3701 plate and incubate for 20˜24 hour. 16,000˜20,000 cells will be seeded in 36 μL medium per well. • 2. Change the culture medium with fresh medium and incubate for another 90 minutes. • 3. Add 12 μL (4×) compounds into the cell plate by HAMILTON. Final DMSO concentration is 0.5%. […] Aspirate 38 μL by HAMILTON, 10 μL rest per well. • 5. Add 10 μL 2× lysis buffer using HAMILTON; total volume in wells is 20 μL. Allow cells to shake for 30 min. Cover plate by plastic foil and store plate at −80° C. up to analysis. • 6. Thaw cell lysate at RT and transfer 10 μL lysate to assay plate (Optiplate-384). • 7. Add 5 μL acceptor beads into assay plate and incubation for 2 hours • 8. Add 5 μL donor beads and incubation for 2 hours • 9. Count the plate by EnSpire Multimode Plate Reader

[2] = tested on: p-p70 S6 Kinase (Thr389) in MCF-7 cells; assay: AlphaLISA Ultra pS6K1 assay; format: cell-based; settings: Homo sapiens, 1.5 h; MCF7 cells, 90 min
Protocol: Example 55: AlphaLISA Ultra pS6K1 Assay
Assay Protocol: • 1. Seed MCF-7 cells in Corning 3701 plate and incubate for 20˜24 hour. 12,000˜16,000 cells will be seeded in 36 μL medium per well. • 2. Change the culture medium with fresh medium and incubate for another 2 hours. • 3. Add 12 μL (4×) compounds into the cell plate by HAMILTON. Final DMSO concentration is 0.5%. Incubate for 90 minutes. • 4. Aspirate 38 μL by HAMILTON, 10 μL rest per well. • 5. Add 10 μL 2× lysis buffer using HAMILTON; total volume in wells is 20 μL. Allow cells to shake for 30 min. Cover plate by plastic foil and store plate at −80° C. up to analysis. • 6. Thaw cell lysate at RT and transfer 10 μL lysate to assay plate (Optiplate-384). • 7. Add 5 μL acceptor beads into assay plate and incubation for 2 hours • 8. Add 5 μL donor beads and incubation for 2 hours • 9. Count the plate by EnSpire Multimode Plate Reader

Row | SMILES | IC50 [1] [nM] | IC50 [2] [nM]
1 | CO[C@@H]1/C(C)=C/[C@@H](C)C(=O)C[C@@H]([C@H](C)C[C@@H]2CC[C@@H](OP(C)(C)=O)[C@H](OC)C2)OC(=O)[C@@H]2CCCCN2C(=O)C(=O)[C@]2(O)O[C@@H](CC[C@H]2C)CC(OCC2COCCO2)/C(C)=C/C=C/C=C/[C@@H](C)C[C@@H](C)C(=O)[C@@H]1OC (stereo partly drawn) [I-24, (1R,2R,4S)-4-((2R)-2-((3S,6R,7E,9R,10R,12R,14S,15E,17E,19E,23S,26R,27R,34aS)-21-((1,4-dioxan-2-yl)methoxy)-27-hydroxy-9,10-dimethoxy-6,8,12,14,20,26-hexamethyl-1,5,11,28,29-pentaoxo-1,4,5,6,9,10,11,12,13,14,21,22,23,24,25,26,27,28,29,31,32,33,34,34a-tetracosahydro-3H-23,27-epoxypyrido[2,1-c][1]oxa[4]azacyclohentriacontin-3-yl)propyl)-2-methoxycyclohexyl dimethylphosphinate] | ≥ 1000 | 
2 | COCCO[C@@H]1CC[C@@H](C[C@@H](C)[C@@H]2CC(=O)[C@H](C)/C=C(\C)[C@@H](O)[C@@H](OC)C(=O)[C@H](C)C[C@H](C)/C=C/C=C/C=C(\C)[C@H](OC[C@H]3COCCO3)C[C@@H]3CC[C@@H](C)[C@@](O)(O3)C(=O)C(=O)N3CCCC[C@H]3C(=O)O2)C[C@H]1OC [I-63, (1R,9S,12S,15R,16E,18R,19R,21R,23S,24E,26E,28E,30R,32S,35R)-30-[[(2R)-1,4-dioxan-2-yl]methoxy]-1,18-dihydroxy-19-methoxy-12-[(1R)-2-[(1S,3R,4R)-3-methoxy-4-(2-methoxyethoxy)cyclohexyl]-1-methyl-ethyl]-15,17,21,23,29,35-hexamethyl-11,36-dioxa-4-azatricyclo[30.3.1.0^4,9]hexatriaconta-16,24,26,28-tetraene-2,3,10,14,20-pentone] |  | 1 to 10
3 | COCCO[C@@H]1CC[C@@H](C[C@@H](C)[C@@H]2CC(=O)[C@H](C)/C=C(\C)[C@@H](O)[C@@H](OC)C(=O)[C@H](C)C[C@H](C)/C=C/C=C/C=C(\C)[C@H](OC[C@@H]3COCCO3)C[C@@H]3CC[C@@H](C)[C@@](O)(O3)C(=O)C(=O)N3CCCC[C@H]3C(=O)O2)C[C@H]1OC [I-65, (1R,9S,12S,15R,16E,18R,19R,21R,23S,24E,26E,28E,30R,32S,35R)-30-[[(2S)-1,4-dioxan-2-yl]methoxy]-1,18-dihydroxy-19-methoxy-12-[(1R)-2-[(1S,3R,4R)-3-methoxy-4-(2-methoxyethoxy)cyclohexyl]-1-methyl-ethyl]-15,17,21,23,29,35-hexamethyl-11,36-dioxa-4-azatricyclo[30.3.1.0^4,9]hexatriaconta-16,24,26,28-tetraene-2,3,10,14,20-pentone] |  | 1 to 10
4 | CO[C@@H]1C[C@H](C[C@@H](C)[C@@H]2CC(=O)[C@H](C)/C=C(\C)[C@@H](O)[C@@H](OC)C(=O)[C@H](C)C[C@H](C)/C=C/C=C/C=C(\C)C(OCc3cnccn3)C[C@@H]3CC[C@@H](C)[C@@](O)(O3)C(=O)C(=O)N3CCCC[C@H]3C(=O)O2)CC[C@H]1OCCO (stereo partly drawn) [I-67, (1R,9S,12S,15R,16E,18R,19R,21R,23S,24E,26E,28E,32S,35R)-1,18-dihydroxy-12-[(1R)-2-[(1S,3R,4R)-4-(2-hydroxyethoxy)-3-methoxy-cyclohexyl]-1-methyl-ethyl]-19-methoxy-15,17,21,23,29,35-hexamethyl-30-(pyrazin-2-ylmethoxy)-11,36-dioxa-4-azatricyclo[30.3.1.0^4,9]hexatriaconta-16,24,26,28-tetraene-2,3,10,14,20-pentone] |  | < 1
5 | COCCO[C@@H]1CC[C@@H](C[C@@H](C)[C@@H]2CC(=O)[C@H](C)/C=C(\C)[C@@H](O)[C@@H](OC)C(=O)[C@H](C)C[C@H](C)/C=C/C=C/C=C(\C)C(OCc3cnccn3)C[C@@H]3CC[C@@H](C)[C@@](O)(O3)C(=O)C(=O)N3CCCC[C@H]3C(=O)O2)C[C@H]1OC (stereo partly drawn) [I-68, (1R,9S,12S,15R,16E,18R,19R,21R,23S,24E,26E,28E,32S,35R)-1,18-dihydroxy-19-methoxy-12-[(1R)-2-[(1S,3R,4R)-3-methoxy-4-(2-methoxyethoxy)cyclohexyl]-1-methyl-ethyl]-15,17,21,23,29,35-hexamethyl-30-(pyrazin-2-ylmethoxy)-11,36-dioxa-4-azatricyclo[30.3.1.0^4,9]hexatriaconta-16,24,26,28-tetraene-2,3,10,14,20-pentone] |  | < 1
6 | CO[C@@H]1C[C@H](C[C@@H](C)[C@@H]2CC(=O)[C@H](C)/C=C(\C)[C@@H](O)[C@@H](OC)C(=O)[C@H](C)C[C@H](C)/C=C/C=C/C=C(\C)[C@H](OCCOC3COC3)C[C@@H]3CC[C@@H](C)[C@@](O)(O3)C(=O)C(=O)N3CCCC[C@H]3C(=O)O2)CC[C@H]1O [I-71, (1R,9S,12S,15R,16E,18R,19R,21R,23S,24E,26E,28E,30R,32S,35R)-1,18-dihydroxy-12-[(1R)-2-[(1S,3R,4R)-4-hydroxy-3-methoxy-cyclohexyl]-1-methyl-ethyl]-19-methoxy-15,17,21,23,29,35-hexamethyl-30-[2-(oxetan-3-yloxy)ethoxy]-11,36-dioxa-4-azatricyclo[30.3.1.0^4,9]hexatriaconta-16,24,26,28-tetraene-2,3,10,14,20-pentone] |  | 1 to 10
7 | CO[C@@H]1C[C@H](C[C@@H](C)[C@@H]2CC(=O)[C@H](C)/C=C(\C)[C@@H](O)[C@@H](OC)C(=O)[C@H](C)C[C@H](C)/C=C/C=C/C=C(\C)[C@@H](OCCOC3COC3)C[C@@H]3CC[C@@H](C)[C@@](O)(O3)C(=O)C(=O)N3CCCC[C@H]3C(=O)O2)CC[C@H]1O [I-72, (1R,9S,12S,15R,16E,18R,19R,21R,23S,24E,26E,28E,30S,32S,35R)-1,18-dihydroxy-12-[(1R)-2-[(1S,3R,4R)-4-hydroxy-3-methoxy-cyclohexyl]-1-methyl-ethyl]-19-methoxy-15,17,21,23,29,35-hexamethyl-30-[2-(oxetan-3-yloxy)ethoxy]-11,36-dioxa-4-azatricyclo[30.3.1.0^4,9]hexatriaconta-16,24,26,28-tetraene-2,3,10,14,20-pentone] |  | < 1
8 | CO[C@@H]1/C(C)=C/[C@@H](C)C(=O)C[C@@H]([C@H](C)C[C@@H]2CC[C@@H](OP(C)(C)=O)[C@H](OC)C2)OC(=O)[C@@H]2CCCCN2C(=O)C(=O)[C@]2(O)O[C@@H](CC[C@H]2C)CC(OCCOCCOC2COC2)/C(C)=C/C=C/C=C/[C@@H](C)C[C@@H](C)C(=O)[C@@H]1OC (stereo partly drawn) [I-73, (1R,9S,12S,15R,16E,18R,19R,21R,23S,24E,26E,28E,32S,35R)-12-[(1R)-2-[(1S,3R,4R)-4-dimethylphosphoryloxy-3-methoxy-cyclohexyl]-1-methyl-ethyl]-1-hydroxy-18,19-dimethoxy-15,17,21,23,29,35-hexamethyl-30-[2-[2-(oxetan-3-yloxy)ethoxy]ethoxy]-11,36-dioxa-4-azatricyclo[30.3.1.04,9]hexatriaconta-16,24,26,28-tetraene-2,3,10,14,20-pentone] |  | 10 to 100
9 | CO[C@@H]1/C(C)=C/[C@@H](C)C(=O)C[C@@H]([C@H](C)C[C@@H]2CC[C@@H](OCCO)[C@H](OC)C2)OC(=O)[C@@H]2CCCCN2C(=O)C(=O)[C@]2(O)O[C@@H](CC[C@H]2C)CC(OCCOC2COC2)/C(C)=C/C=C/C=C/[C@@H](C)C[C@@H](C)C(=O)[C@@H]1OC (stereo partly drawn) [I-87, (3S,6R,7E,9R,10R,12R,14S,15E,17E,19E,23S,26R,27R,34aS)-27-hydroxy-3-((R)-1-((1S,3R,4R)-4-(2-hydroxyethoxy)-3-methoxycyclohexyl)propan-2-yl)-9,10-dimethoxy-6,8,12,14,20,26-hexamethyl-21-(2-(oxetan-3-yloxy)ethoxy)-9,10,12,13,14,21,22,23,24,25,26,27,32,33,34,34a-hexadecahydro-3H-23,27-epoxypyrido[2,1-c][1]oxa[4]azacyclohentriacontine-1,5,11,28,29(4H,6H,31H)-pentaone] | ≥ 1000 | 
